Reference: patent publication US5028604A, “Condensed benzene derivative” (Zeria Pharmaceutical Co., Ltd., priority 1988, dated 1991)
Where two headings read alike, the source gives them in different places.

Experiments:
[1] = molecular target: T1, prolyl endopeptidase from canine brain (Canis lupus familiaris, UniProt A0A8I3N6C8); assay: Inhibitory Activity Against Prolyl Endopeptidase From Brain; format: biochemical; conditions: 37° C., pH 7.0, substrate benzyloxycarbonylglycylprolylparanitroanilide; read-out: Inhibition Potency, IC50
T1 construct: A prolyl endopeptidase was prepared from canine brains; from tissue; host or cells: canine brain
T1 sequence (A0A8I3N6C8 1-710): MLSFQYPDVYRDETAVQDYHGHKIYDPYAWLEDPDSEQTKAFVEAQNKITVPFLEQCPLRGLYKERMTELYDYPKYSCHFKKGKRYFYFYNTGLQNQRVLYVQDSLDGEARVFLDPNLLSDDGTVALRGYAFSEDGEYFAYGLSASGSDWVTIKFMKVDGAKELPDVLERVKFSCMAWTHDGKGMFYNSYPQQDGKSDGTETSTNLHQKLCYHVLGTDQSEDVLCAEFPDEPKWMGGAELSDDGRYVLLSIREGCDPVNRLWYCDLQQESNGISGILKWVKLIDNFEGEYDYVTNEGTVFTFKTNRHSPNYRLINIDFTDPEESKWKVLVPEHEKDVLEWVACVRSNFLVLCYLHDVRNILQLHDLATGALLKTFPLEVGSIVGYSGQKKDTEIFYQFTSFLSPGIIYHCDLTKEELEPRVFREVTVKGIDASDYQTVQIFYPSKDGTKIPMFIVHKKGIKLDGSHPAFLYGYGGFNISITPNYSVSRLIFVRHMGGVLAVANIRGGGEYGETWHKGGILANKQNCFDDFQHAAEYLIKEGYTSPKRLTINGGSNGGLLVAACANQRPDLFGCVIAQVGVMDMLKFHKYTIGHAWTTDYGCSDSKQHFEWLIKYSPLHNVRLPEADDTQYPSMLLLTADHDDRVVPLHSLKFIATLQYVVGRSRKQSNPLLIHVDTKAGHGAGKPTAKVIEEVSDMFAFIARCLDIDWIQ
Description: Following buffer solutions were used for the measurement.
Buffer A: 20 mM Tris-HCl buffer (pH 7.0)
Buffer B: Buffer A containing 0.1% gelatin, 1 mM EDTA, and 1 mM 2-mercaptoethanol
This solution (50 μl) was added to 940 μl of the Buffer A, and the solution thus obtained was left at 37° C. for 10 minutes (This solution is herein referred to as "Enzyme solution"). A mixed solution of 50 μl of the Buffer B and 940 μl of Buffer A was used as a "Correction solution".
A test compound was dissolved in dimethylsulfoxide, and 10 μl of the solution was added to the Enzyme solution. The mixture was stirred and allowed to stand at 37° C. for 10 minutes. Separately, 10 μl of dimethylsulfoxide was added to the Enzyme solution and was processed in the same manner. The solution thus obtained was served as a "Control solution". The same procedure was carried out on the Correction solution.
One hundred (100) μl of 2.5 mM benzyloxycarbonylglycylprolylparanitroanilide, which was dissolved with 40% dioxane, was added to each of the above 3 solutions, i.e., the Enzyme solution with the test compound, Control solution, and Correction solution, and the reaction was carried out at 37° C. for 10 minutes.
Enzyme activities were determined by subtracting the blank value, i.e., the absorbance measured on the Correction solution, from the absorbance of each of the sample solutions and of the Control solution.

[2] = tested on: ICR male mice; assay: Anti-Hypoxic Activity (survival time in 4% O2 + 96% N2); format: in vivo; conditions: Mus musculus, ip
Description: Groups of ICR male mice (Charles River Co.), age 4 to 5 weeks, each group consisting of 10 mice and each mouse having been fasted for 24 hours, were used for the test. Mice were placed in a transparent desiccator (diameter: 19 cm, height: 30 cm) made of synthetic resin and having 2 valves, one at the upper portion and the other at the lower portion, for replacing the gas therein. A mixed gas (4% O2 +96% N2) was fed from the upper valve at a rate of 10 l/min to measure the period of time until respiratory arrest took place for each mouse. The time measured was taken as the survival time.
Each tested compound suspended in an solvent was intraperitoneally administered 30 minutes before the start of the mixed gas feeding. A group of mice to which only the solvent was intraperitoneally administered was used as a control.
The anti-hypoxic activity was determined according to the following formula, [formula]

[3] = tested on: CD female rats; assay: Anti-Amnesic Activity (passive avoidance, electric convulsive shock); format: in vivo; conditions: 30 mg/kg P.O., one hour before acquisition trial; ECS; retention trial at 24 hours; solvent + sham 133.0, solvent + ECS 0.8
Description: Compounds of this invention were checked with respect to their abilities to prevent the inhibition of long-term memory fixation by electric convulsive shock (ECS). CD female rats (Charles River), weighed 160-180 g were used for the test. One hour after the administration of a compound of this invention, the acquisition trial according to the passive avoidance training was performed on the rats. A foot shock was given to the rats when they entered into a dark room. Immediately after that an amnesic treatment by ECS or a sham amnesic treatment was performed. Twenty four (24) hours after the acquisition trial the retention trial was performed. Latency of the […] entering into a dark room was measured.

[4] = read-out: Anti-hypoxic Activity
[5] = 100 mg/kg i.p., 30 minutes before mixed gas, control = 100, read-out: Anti-hypoxic Activity

O=C(C1CSCCN1C(=O)CC1Cc2ccccc2C1)N1CCSC1 (racemic) [Example 5, 3-[4-(2-indanylacetyl)-DL-1,4-thiazan-3-ylcarbonyl]thiazolidine]
IC50 [1]: 0.022 µM

COc1ccc(C(=O)N2CCCC2=O)cc1 [Aniracetam, reference compound]
response vs control in vivo at 100 mg/kg [2, 4]: 115% | response vs control in vivo at 300 mg/kg [2, 4]: 159% | IC50 [1]: > 1000 µM

CC(C)(CO)[C@@H](O)C(=O)NCCCC(=O)O [Calcium hopantenate, reference compound]
response vs control in vivo at 250 mg/kg ([2]; 250 mg/kg i.p., 30 minutes before mixed gas, control = 100): 135%

O=C([C@@H]1CSCN1C(=O)CC1Cc2ccccc2C1)N1CCSC1 [Example 1, 3-[3-(2-indanylacetyl)-L-thioprolyl]thiazolidine]
Latency to entering into a dark room [3]: 77.0 s | response vs control in vivo at 100 mg/kg [2, 5]: 131%

O=C([C@@H]1CSCN1C(=O)CC1Cc2ccccc2C1)N1CCCC1 [Example 2, 1-[3-(2-indanylacetyl)-L-thioprolyl]pyrrolidine]
response vs control in vivo at 100 mg/kg [2, 5]: 127%

O=C([C@@H]1CCCN1C(=O)CC1Cc2ccccc2C1)N1CCCC1 [Example 4, 1-[1-(2-indanylacetyl)-L-prolyl]pyrrolidine]
response vs control in vivo at 100 mg/kg [2, 5]: 141%

O=C([C@@H]1CCCCN1C(=O)CC1Cc2ccccc2C1)N1CCCC1 [Example 10, 1-[1-(2-indanylacetyl)-L-piperidine-2ylcarbonyl]pyrrolidine]
IC50 [1]: 0.049 µM

O=C([C@H]1CCCCN1C(=O)CC1Cc2ccccc2C1)N1CCCC1 [Example 11, 1-[1-(2-indanylacetyl)-D-piperidine-2-ylcarbonyl]pyrrolidine]
response vs control in vivo at 50 mg/kg ([2]; 50 mg/kg i.p., 30 minutes before mixed gas, control = 100): 141%

O=C(O)[C@@H]1CCCN1C(=O)[C@@H]1CCCN1C(=O)CC1Cc2ccccc2C1 [Example 17, 1-[1-(2-indanylacetyl)-L-prolyl]-L-proline]
response vs control in vivo at 100 mg/kg [2, 5]: 137%

O=C([C@@H]1CCCN1C(=O)CC1=Cc2ccccc2C1)N1CCSC1 [Example 18, 3-[1-(2-indenylacetyl)-L-prolyl]thiazolidine]
IC50 [1]: 0.043 µM

O=C([C@@H]1CCCN1C(=O)CC1=Cc2ccccc2C1)N1CCCC1 [Example 19, 1-[1-(2-indenyl-acetyl)-L-prolyl]pyrrolidine]
response vs control in vivo at 100 mg/kg [2, 5]: 155%

O=C([C@@H]1CCCN1C(=O)CC1CCc2ccccc2C1)N1CCCC1 (stereo partly drawn) [Example 24, 1-[1-(1,2,3,4-tetrahydronaphthalen-2-ylacetyl)-L-prolyl]pyrrolidine]
response vs control in vivo at 100 mg/kg [2, 5]: 235%

O=C([C@@H]1CSCN1C(=O)CCCC1Cc2ccccc2C1)N1CCCC1 [Example 26, 1-{3-[4-(indan-2-yl)butanoyl]-L-thioprolyl}pyrrolidine]
response vs control in vivo at 100 mg/kg [2, 5]: 291%

O=C[C@@H]1CCCN1C(=O)[C@@H]1CCCN1C(=O)CC1=Cc2ccccc2C1 [Example 42, 1-[1-(2-indenylacetyl)-L-prolyl]-L-prolinal]
response vs control in vivo at 100 mg/kg [2, 5]: 168% | IC50 [1]: 0.0013 µM

COC1=C(OC)C(=O)C(CCCCCCCCCCO)=C(C)C1=O [Idebenone, reference compound]
response vs control in vivo at 100 mg/kg [2, 5]: 140%
